Structures can show the parent of a compound that is named as a salt.
Assay: Evaluation of conversion rate to active form in buffer solution (Experimental Example 1)
Type: physicochemical
Settings: for Production rate of Alvocidib / Residual rate: 37° C., 25 umol/L in buffer solution; for Stability in buffer solution at pH 5: pH 5, 37° C., up to 2 or 3 hours; for Conversion to Alvocidib at pH 7.4: pH 7.4, 37° C., up to 3 hours
Summary of the method: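 Conversion to Alvocidib and loss of parent were followed by HPLC over 3 h (samples at 0, 0.5, 1, 2, 3 h). Incubations used 25 umol/L compound at 37 °C across pH 5.0–7.4, in 50 mM citrate below pH 6.0 and 50 mM phosphate from pH 6.0 upward.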

Q: With CCN(CC1CCCCN1)C(=O)Oc1cc(O)c2c(=O)cc(-c3ccccc3Cl)oc2c1[C@H]1CCN(C)C[C@H]1O (stereo partly drawn) [Example 7, 2-(2-chlorophenyl)-5-hydroxy-8-[(3S,4R)-3-hydroxy-1-methylpiperidin-4-yl]-4-oxo-4H-1-benzopyran-7-yl ethyl[(piperidin-2-yl)methyl]carbamate dihydrochloride] as the molecule, how does the “Production rate of Alvocidib” value (pH5.0, 0 hr) read?
A: The value was 0.0%.

Q: And the Residual rate (pH5.0, 0 hr)?
A: The Residual rate was 100.0%.

Q: What about the “Stability in buffer solution at pH 5” value of the same molecule?
A: The value was “stable”.

Q: And the “Production rate of Alvocidib” value (pH5.0, 0.5 hr)?
A: Its value is 0.0%.

Q: And the Residual rate (pH5.0, 0.5 hr)?
A: The Residual rate was 100.0%.

Q: And the “Production rate of Alvocidib” value (pH5.0, 1 hr)?
A: The value was 0.0%.

Q: And the Residual rate (pH5.0, 1 hr)?
A: The Residual rate was 100.0%.

Q: What about the “Production rate of Alvocidib” value (pH5.0, 2 hr) of the same molecule?
A: The value was 1.5%.

Q: And the Residual rate (pH5.0, 2 hr)?
A: Its Residual rate is 98.5%.

Q: What about the “Production rate of Alvocidib” value (pH5.0, 3 hr) of the same molecule?
A: The value was 2.3%.

Q: And the Residual rate (pH5.0, 3 hr)?
A: Its Residual rate is 97.7%.

Q: And the “Production rate of Alvocidib” value (pH5.5, 0 hr)?
A: Its value is 0.0%.

Q: What about the Residual rate (pH5.5, 0 hr) of the same molecule?
A: The Residual rate was 100.0%.

Q: And the “Production rate of Alvocidib” value (pH5.5, 0.5 hr)?
A: The value was 1.2%.

Q: What about the Residual rate (pH5.5, 0.5 hr) of the same molecule?
A: The Residual rate was 98.8%.

Q: And the “Production rate of Alvocidib” value (pH5.5, 1 hr)?
A: The value was 2.0%.

Q: And the Residual rate (pH5.5, 1 hr)?
A: The Residual rate was 98.0%.

Q: What about the “Production rate of Alvocidib” value (pH5.5, 2 hr) of the same molecule?
A: Its value is 3.8%.

Q: What about the Residual rate (pH5.5, 2 hr) of the same molecule?
A: Its Residual rate is 96.2%.

Q: What about the “Production rate of Alvocidib” value (pH5.5, 3 hr) of the same molecule?
A: The value was 5.1%.

Q: And the Residual rate (pH5.5, 3 hr)?
A: Its Residual rate is 94.9%.

Q: And the “Production rate of Alvocidib” value (pH6.0, 0 hr)?
A: Its value is 1.1%.

Q: And the Residual rate (pH6.0, 0 hr)?
A: The Residual rate was 98.9%.

Q: What about the “Production rate of Alvocidib” value (pH6.0, 0.5 hr) of the same molecule?
A: The value was 4.0%.

Q: What about the Residual rate (pH6.0, 0.5 hr) of the same molecule?
A: Its Residual rate is 96.0%.

Q: What about the “Production rate of Alvocidib” value (pH6.0, 1 hr) of the same molecule?
A: Its value is 5.4%.

Q: What about the Residual rate (pH6.0, 1 hr) of the same molecule?
A: Its Residual rate is 94.6%.

Q: What about the “Production rate of Alvocidib” value (pH6.0, 2 hr) of the same molecule?
A: The value was 12.5%.

Q: What about the Residual rate (pH6.0, 2 hr) of the same molecule?
A: Its Residual rate is 87.5%.

Q: What about the “Production rate of Alvocidib” value (pH6.0, 3 hr) of the same molecule?
A: Its value is 16.6%.

Q: What about the Residual rate (pH6.0, 3 hr) of the same molecule?
A: The Residual rate was 83.4%.

Q: And the “Production rate of Alvocidib” value (pH6.5, 0 hr)?
A: Its value is 3.3%.

Q: What about the Residual rate (pH6.5, 0 hr) of the same molecule?
A: The Residual rate was 96.7%.

Q: And the “Production rate of Alvocidib” value (pH6.5, 0.5 hr)?
A: The value was 12.4%.

Q: And the Residual rate (pH6.5, 0.5 hr)?
A: Its Residual rate is 87.6%.

Q: And the “Production rate of Alvocidib” value (pH6.5, 1 hr)?
A: Its value is 16.0%.

Q: What about the Residual rate (pH6.5, 1 hr) of the same molecule?
A: Its Residual rate is 84.0%.

Q: What about the “Production rate of Alvocidib” value (pH6.5, 2 hr) of the same molecule?
A: Its value is 26.8%.

Q: What about the Residual rate (pH6.5, 2 hr) of the same molecule?
A: Its Residual rate is 73.2%.

Q: And the “Production rate of Alvocidib” value (pH6.5, 3 hr)?
A: The value was 35.2%.

Q: What about the Residual rate (pH6.5, 3 hr) of the same molecule?
A: The Residual rate was 64.8%.

Q: What about the “Production rate of Alvocidib” value (pH7.0, 0 hr) of the same molecule?
A: Its value is 10.9%.

Q: What about the Residual rate (pH7.0, 0 hr) of the same molecule?
A: Its Residual rate is 89.1%.

Q: What about the “Production rate of Alvocidib” value (pH7.0, 0.5 hr) of the same molecule?
A: The value was 27.3%.

Q: What about the Residual rate (pH7.0, 0.5 hr) of the same molecule?
A: Its Residual rate is 72.7%.

Q: And the “Production rate of Alvocidib” value (pH7.0, 1 hr)?
A: Its value is 38.0%.

Q: And the Residual rate (pH7.0, 1 hr)?
A: Its Residual rate is 62.0%.

Q: And the “Production rate of Alvocidib” value (pH7.0, 2 hr)?
A: The value was 52.9%.

Q: What about the Residual rate (pH7.0, 2 hr) of the same molecule?
A: Its Residual rate is 47.1%.

Q: What about the “Production rate of Alvocidib” value (pH7.0, 3 hr) of the same molecule?
A: Its value is 70.5%.

Q: And the Residual rate (pH7.0, 3 hr)?
A: Its Residual rate is 29.5%.

Q: And the “Production rate of Alvocidib” value (pH7.4, 0 hr)?
A: The value was 19.0%.

Q: What about the Residual rate (pH7.4, 0 hr) of the same molecule?
A: The Residual rate was 81.0%.

Q: What about the “Conversion to Alvocidib at pH 7.4” value of the same molecule?
A: The value was “rapidly converted to Alvocidib”.

Q: What about the “Production rate of Alvocidib” value (pH7.4, 0.5 hr) of the same molecule?
A: Its value is 50.2%.

Q: What about the Residual rate (pH7.4, 0.5 hr) of the same molecule?
A: The Residual rate was 49.8%.

Q: What about the “Production rate of Alvocidib” value (pH7.4, 1 hr) of the same molecule?
A: The value was 60.8%.

Q: What about the Residual rate (pH7.4, 1 hr) of the same molecule?
A: Its Residual rate is 39.2%.

Q: And the “Production rate of Alvocidib” value (pH7.4, 2 hr)?
A: Its value is 69.0%.

Q: What about the Residual rate (pH7.4, 2 hr) of the same molecule?
A: The Residual rate was 31.0%.

Q: What about the “Production rate of Alvocidib” value (pH7.4, 3 hr) of the same molecule?
A: Its value is 81.0%.

Q: And the Residual rate (pH7.4, 3 hr)?
A: The Residual rate was 19.0%.

Q: What does the source list for CN1CC[C@H](c2c(OC(=O)N(C)CC3CCCCN3)cc(O)c3c(=O)cc(-c4ccccc4Cl)oc23)[C@H](O)C1 (stereo partly drawn) [Example 8, 2-(2-chlorophenyl)-5-hydroxy-8-[(3S,4R)-3-hydroxy-1-methylpiperidin-4-yl]-4-oxo-4H-1-benzopyran-7-yl methyl[(piperidin-2-yl)methyl]carbamate]?
A: Production rate of Alvocidib (pH5.0, 0 hr): 0.7%; Residual rate (pH5.0, 0 hr): 95.4%; Stability in buffer solution at pH 5: stable; Production rate of Alvocidib (pH5.0, 0.5 hr): 1.2%; Residual rate (pH5.0, 0.5 hr): 95.1%; Production rate of Alvocidib (pH5.0, 1 hr): 1.6%; Residual rate (pH5.0, 1 hr): 95.0%; Production rate of Alvocidib (pH5.0, 2 hr): 2.0%; Residual rate (pH5.0, 2 hr): 94.7%; Production rate of Alvocidib (pH5.5, 0 hr): 0.5%; Residual rate (pH5.5, 0 hr): 95.9%; Production rate of Alvocidib (pH5.5, 0.5 hr): 1.6%; Residual rate (pH5.5, 0.5 hr): 95.0%; Production rate of Alvocidib (pH5.5, 1 hr): 2.5%; Residual rate (pH5.5, 1 hr): 94.3%; Production rate of Alvocidib (pH5.5, 2 hr): 3.5%; Residual rate (pH5.5, 2 hr): 93.4%; Production rate of Alvocidib (pH6.0, 0 hr): 0.8%; Residual rate (pH6.0, 0 hr): 95.7%; Production rate of Alvocidib (pH6.0, 0.5 hr): 4.4%; Residual rate (pH6.0, 0.5 hr): 92.1%; Production rate of Alvocidib (pH6.0, 1 hr): 7.3%; Residual rate (pH6.0, 1 hr): 89.4%; Production rate of Alvocidib (pH6.0, 2 hr): 10.3%; Residual rate (pH6.0, 2 hr): 86.5%; Production rate of Alvocidib (pH6.5, 0 hr): 1.5%; Residual rate (pH6.5, 0 hr): 95.0%; Production rate of Alvocidib (pH6.5, 0.5 hr): 11.2%; Residual rate (pH6.5, 0.5 hr): 85.3%; Production rate of Alvocidib (pH6.5, 1 hr): 18.9%; Residual rate (pH6.5, 1 hr): 77.7%; Production rate of Alvocidib (pH6.5, 2 hr): 25.6%; Residual rate (pH6.5, 2 hr): 71.2%; Production rate of Alvocidib (pH7.0, 0 hr): 4.0%; Residual rate (pH7.0, 0 hr): 92.5%; Production rate of Alvocidib (pH7.0, 0.5 hr): 27.3%; Residual rate (pH7.0, 0.5 hr): 69.3%; Production rate of Alvocidib (pH7.0, 1 hr): 40.0%; Residual rate (pH7.0, 1 hr): 56.7%; Production rate of Alvocidib (pH7.0, 2 hr): 48.2%; Residual rate (pH7.0, 2 hr): 49.0%; Production rate of Alvocidib (pH7.4, 0 hr): 9.7%; Residual rate (pH7.4, 0 hr): 86.7%; Conversion to Alvocidib at pH 7.4: rapidly converted to Alvocidib; Production rate of Alvocidib (pH7.4, 0.5 hr): 45.1%; Residual rate (pH7.4, 0.5 hr): 51.4%; Production rate of Alvocidib (pH7.4, 1 hr): 55.2%; Residual rate (pH7.4, 1 hr): 41.7%; Production rate of Alvocidib (pH7.4, 2 hr): 58.2%; Residual rate (pH7.4, 2 hr): 38.4%
